The data set in a line: log P by HPLC on a reversed-phase column (C 18), EEC Directive 79/831 Annex V.A8. In kind it is physicochemical. The following applies: 0.1% aqueous formic acid and acetonitrile. On the procedure: In table 1, the log P values were determined in accordance with EEC Directive 79/831 Annex V.A8 by HPLC (High Performance Liquid Chromatography) on a reversed-phase column (C 18), using the method described below:
Temperature: 40° C.; Mobile phases: 0.1% aqueous formic acid and acetonitrile; linear gradient from 10% acetonitrile to 90% acetonitrile.
Calibration was carried out using unbranched alkan-2-ones (comprising 3 to 16 carbon atoms) with known log P values (determination of the log P values by the retention times using linear interpolation between two successive alkanones). lambda-max-values were determined using UV-spectra from 200 nm to 400 nm and the peak values of the chromatographic signals.

Setting [1] is: HPLC, reversed-phase column (C 18), 40° C., linear gradient 10% to 90% acetonitrile.
The mark [2] stands for this setting: Table 4 (aldehydes of formula IV), HPLC C 18, 40° C.
Setting [3] is: HPLC on reversed-phase column (C 18), 40° C., linear gradient 10% to 90% acetonitrile.
[4] abbreviates: reversed-phase HPLC column (C 18), Table 3 (amines of formula II), HPLC C 18, 40° C.
The mark [5] stands for this setting: reversed-phase HPLC column (C 18), Table 4 (aldehydes of formula IV), HPLC C 18, 40° C.

By logP is commonly meant the decadic logarithm of the partition coefficient of the neutral form, usually between octanol and water. A higher logP goes with a more lipophilic compound. By chromatographic logP is commonly meant lipophilicity estimated from chromatographic retention.

Take `CCC1(c2ccc(C)cc2CN(C(=O)c2c(C(F)F)nn(C)c2Cl)C2CC2)CC1` [I.112]: the logP under setting [1] worked out at 4.77.

For “1-(2-formyl-4-methylphenyl)cyclopropanecarbonitrile [IV.16]”, the logP under setting [2] is on record as 2.08.

As for `Cn1nc(C(F)F)c(C(=O)N(Cc2cc(Cl)ccc2C2(C)CC2(Cl)Cl)C2CC2)c1F` (racemic) [I.168], under setting [3], the logP came to 4.39.

With `CCC1(c2ccc(C(F)(F)F)cc2CNC2CC2)CC1` [II.28, N-[2-(1-ethylcyclopropyl)-5-(trifluoromethyl)benzyl]cyclopropanamine], the chromatographic logP under setting [4] came to 1.82.

On to `COCC1(c2ccc(C)cc2CN(C(=O)c2c(C(F)F)nn(C)c2F)C2CC2)CC1` [I.182], for which, under setting [3], the log partition coefficient (logP) was 3.52.

For `C=C(C)c1ccc(C2(OC)CC2)c(CN(C(=O)c2c(C(F)F)nn(C)c2F)C2CC2)c1` [I.127], the logP under setting [1] is 4.12.

The compound `C[Si](C)(C)C#CC1(c2ccc(Cl)cc2CNC2CC2)CC1` [II.18, N-(5-chloro-2-{1-[(trimethylsilyl)ethynyl]cyclopropyl}benzyl)cyclopropanamine] came in with a chromatographic logP (Table 3 (amines of formula II), HPLC C 18, 40° C.) of 2.07.

Turning to `FC(F)(F)C1(c2ccc(Cl)cc2CNC2CC2)CC1` [II.44, N-{5-chloro-2-[1-(trifluoromethyl)cyclopropyl]benzyl}cyclopropanamine], under setting [4], the chromatographic logP is 1.47.

Turning to `Cc1ccc(C2(C)CC2Cl)c(CN(C(=O)c2c(C(F)F)nn(C)c2F)C2CC2)c1Cl` (stereo not shown) [I.140], under setting [1], the logP came to 4.58.

Take `Cn1nc(C(F)F)c(C(=S)N(Cc2ccc(F)cc2C2(C)CC2)C2CC2)c1Cl` [I.024]: the logP under setting [1] amounted to 4.74. This logP and that of the compound before are within 0.2 log units of each other.

The compound `Cn1nc(C(F)F)c(C(=O)N(Cc2cccc(C3CCCCC3)c2C2(C)CC2)C2CC2)c1F` [I.007] gave a lipophilicity (logP) under setting [1] of 5.74.

With `Cn1nc(C(F)F)c(C(=O)N(Cc2cc(F)ccc2C2(C(F)(F)F)CC2)C2CC2)c1Cl` [I.166], the logP under setting [3] was 3.96.

Turning to `Cn1nc(C(F)F)c(C(=O)N(Cc2cc(F)c(F)cc2C2(C)CC2)C2CC2)c1Cl` [I.049], the logP under setting [1] worked out at 4.16.

As for `Cc1ccc(C=O)c(C2(C)CC2)c1` [IV.04, 4-methyl-2-(1-methylcyclopropyl)benzaldehyde], the chromatographic logP under setting [5] is 3.44.

As for `Cc1ccc(C2(C)CC2)c(CN(C(=S)c2c(C(F)F)nn(C)c2Cl)C2CC2)c1` [I.074], the logP under setting [1] is reported as 4.98.

As for `C=C(C)c1cccc(CN(C(=O)c2c(C(F)F)nn(C)c2F)C2CC2)c1C1(C)CC1` [I.015], under setting [1], the logP was 4.64.

`Cc1cc(C=O)c(C2(C)CC2)cc1C` [IV.07, 4,5-dimethyl-2-(1-methylcyclopropyl)benzaldehyde] gave a chromatographic logP under setting [5] of 3.85.

`Cn1nc(C(F)F)c(C(=O)N(Cc2cc(Cl)ccc2C2(C(F)(F)F)CC2)C2CC2)c1F` [I.163] showed a logP under setting [3] of 4.13.

Turning to `CC1(c2cc(Cl)ccc2CNC2CC2)CC1` [II.04, N-[4-chloro-2-(1-methylcyclopropyl)benzyl]cyclopropanamine], under setting [4], the chromatographic logP came out at 1.54.

Compound `Cc1ccc(F)cc1-c1ccc(CN(C(=O)c2c(C(F)F)nn(C)c2F)C2CC2)c(C2(C)CC2)c1` [I.042] gave a logP under setting [1] of 5.31.

In the case of `Cc1ccc(C2(C3CC3)CC2)c(CNC2CC2)c1` [II.35, N-{2-[1,1′-bi(cyclopropyl)-1-yl]-5-methylbenzyl}cyclopropanamine], the chromatographic logP under setting [4] was found to be 1.67.

Under setting [4], `CCC1(c2cc(C)c(F)cc2CNC2CC2)CC1` [II.27, N-[2-(1-ethylcyclopropyl)-5-fluoro-4-methylbenzyl]cyclopropanamine] yielded a chromatographic logP of 1.69.

In the case of `Cn1nc(C(F)F)c(C(=O)N(Cc2ccccc2C2(C(F)(F)F)CC2)C2CC2)c1F` [I.161], the logP under setting [3] worked out at 2.34.

`Cn1nc(C(F)F)c(C(=O)N(Cc2cc(Br)ccc2C2(C(F)F)CC2)C2CC2)c1F` [I.146] showed a logP under setting [1] of 3.76.

With `Cn1nc(C(F)F)c(C(=O)N(Cc2cc(Cl)ccc2C2(C)CC2)C2CC2)c1Cl` [I.061], the logP under setting [1] was determined as 4.44.

In turn, `Cn1nc(C(F)F)c(C(=S)N(Cc2ccccc2C2(C)CC2)C2CC2)c1F` [I.003] gave a logP under setting [1] of 4.46.

Under setting [1], `C#CC1(c2ccc(Cl)cc2CN(C(=O)c2c(C(F)F)nn(C)c2F)C2CC2)CC1` [I.090] gave a logP of 3.73.

Under setting [4], `COCC1(c2ccc(C)cc2CNC2CC2)CC1` [II.22, N-{2-[1-(methoxymethyl)cyclopropyl]-5-methylbenzyl}cyclopropanamine] came in with a chromatographic logP of 1.49.

Take `Cn1nc(C(F)F)c(C(=O)N(Cc2cc(Br)ccc2C2(C)CC2)C2CC2)c1F` [I.058]: under setting [1], the logP is on record as 4.36.

Under setting [5], `N#CC1(c2ccc(Cl)cc2C=O)CC1` [IV.15, 1-(4-chloro-2-formylphenyl)cyclopropanecarbonitrile] registered a chromatographic logP of 2.35.

In the case of `COC1(c2ccc(C(C)C)cc2CN(C(=O)c2c(C(F)F)nn(C)c2F)C2CC2)CC1` [I.121], the logP under setting [1] is listed as 4.29.

In turn, `CCC1(c2cc(Cl)ccc2CN(C(=O)c2c(C(F)F)nn(C)c2F)C2CC2)CC1` [I.102] returned a logP under setting [1] of 4.67.

With `Cc1ccc(C2(C)CC2(Cl)Cl)c(CN(C(=O)c2c(C(F)F)nn(C)c2F)C2CC2)c1` (racemic) [I.172], the log partition coefficient (logP) under setting [3] was 4.24.

`CCc1ccc(C2(C)CC2)c(CN(C(=O)c2c(C(F)F)nn(C)c2F)C2CC2)c1` [I.065]: the logP under setting [1] is reported as 4.56.

Consider `CCC1(c2ccc(Cl)cc2CNC2CC2)CC1` [II.29, N-[5-chloro-2-(1-ethylcyclopropyl)benzyl]cyclopropanamine], for which the chromatographic logP under setting [4] came out at 1.66.

`Cc1ccc(CN(C(=O)c2c(C(F)F)nn(C)c2Cl)C2CC2)c(C2(C)CC2)c1` [I.027] yielded a logP under setting [1] of 4.36.

As to `Cc1cc(CNC2CC2)c(C2(C)CC2)cc1C` [II.06, N-[4,5-dimethyl-2-(1-methylcyclopropyl)benzyl]cyclopropanamine], under setting [4], the chromatographic logP was 1.68.

In turn, `Cn1nc(C(F)F)c(C(=O)N(Cc2ccccc2C2(C(F)(F)F)CC2)C2CC2)c1Cl` [I.162] registered a log partition coefficient (logP) under setting [3] of 3.87.

Compound `Cc1ccc(C2(C(F)(F)F)CC2)c(CN(C(=O)c2c(C(F)F)nn(C)c2F)C2CC2)c1` [I.167] registered a logP under setting [3] of 4.11.

In the case of `CCC1(c2ccc(C(F)(F)F)cc2CN(C(=O)c2c(C(F)F)nn(C)c2F)C2CC2)CC1` [I.108], the logP under setting [1] worked out at 4.67.

As for `FC(F)(F)C1(c2ccccc2CNC2CC2)CC1` [II.45, N-{2-[1-(trifluoromethyl)cyclopropyl]benzyl}cyclopropanamine], the chromatographic logP under setting [4] turned out to be 1.25.

`Cn1nc(C(F)F)c(C(=O)N(Cc2ccc(-c3ccoc3)cc2C2(C)CC2)C2CC2)c1F` [I.039] came in with a logP under setting [1] of 4.23.

Turning to `Cn1nc(C(F)F)c(C(=S)N(Cc2cccc(F)c2C2(C)CC2)C2CC2)c1F` [I.010], the logP under setting [1] is 4.49.

Take `COc1ccc(C=O)c(C2(C)CC2)c1` [IV.05, 4-methoxy-2-(1-methylcyclopropyl)benzaldehyde]: the chromatographic logP under setting [5] was 2.92.

In turn, `Cc1ccc(C2(C)CC2)c(CNC2(C#N)CC2)c1` [II.14, 1-{[5-methyl-2-(1-methylcyclopropyl)benzyl]amino}cyclopropanecarbonitrile] showed a chromatographic logP under setting [4] of 4.07.

Turning to `CCC1(c2ccccc2CN(C(=O)c2c(C(F)F)nn(C)c2Cl)C2CC2)CC1` [I.097], under setting [1], the logP worked out at 4.34.

On to `Cc1ccc(C2(C)CC2)c(CNC2CC2)c1` [II.12, N-[5-methyl-2-(1-methylcyclopropyl)benzyl]cyclopropanamine], for which the chromatographic logP under setting [4] was determined as 1.38.

Take `CC1(c2ccccc2C=O)CC1` [IV.01, 2-(1-methylcyclopropyl)benzaldehyde]: under setting [5], the chromatographic logP was 3.02.

For the compound `Cc1ccc(C2(Cl)CC2)c(CNC2CC2)c1` [II.34, N-[2-(1-chlorocyclopropyl)-5-methylbenzyl]cyclopropanamine], the chromatographic logP under setting [4] was 1.34.

“3-fluoro-2-(1-methylcyclopropyl)benzaldehyde [IV.14]” returned a logP under setting [2] of 3.13.

On to `Cn1nc(C(F)F)c(C(=O)N(Cc2cc(Cl)ccc2C2(C(F)(F)F)CC2)C2CC2)c1Cl` [I.164], for which the logP under setting [3] turned out to be 4.30.

Take `Cc1ccc(C2(C3CC3)CC2)c(CN(C(=O)c2c(C(F)F)nn(C)c2Cl)C2CC2)c1` [I.135]: the log partition coefficient (logP) under setting [1] turned out to be 4.72.

On to `COC(=O)C1(c2ccc(Cl)cc2C=O)CC1` [IV.25, methyl 1-(4-chloro-2-formylphenyl)cyclopropanecarboxylate], for which the chromatographic logP under setting [5] was 2.68.

Compound `Cc1ccc(C2(CC(C)C)CC2)c(CN(C(=O)c2c(C(F)F)nn(C)c2F)C2CC2)c1` [I.159] returned a logP under setting [3] of 5.36.

Under setting [1], `Cc1cc(CN(C(=O)c2c(C(F)F)nn(C)c2Cl)C2CC2)c(C2(C)CC2)cc1C` [I.052] had a logP of 4.53.

With `Cn1nc(C(F)F)c(C(=O)N(Cc2c(Br)cccc2C2(C(F)F)CC2)C2CC2)c1F` [I.155], the lipophilicity (logP) under setting [1] was determined as 3.76.

`Cc1ccc(C2(Cl)CC2)c(CN(C(=O)c2c(C(F)F)nn(C)c2Cl)C2CC2)c1` [I.133] returned a logP under setting [1] of 4.06.

Take `Cn1nc(C(F)F)c(C(=O)N(Cc2ccc(F)cc2C2(C(F)F)CC2)C2CC2)c1Cl` [I.145]: the logP under setting [1] worked out at 3.55.

`Cn1nc(C(F)F)c(C(=O)N(Cc2ccc(C3CC3)cc2C2(C)CC2)C2CC2)c1F` [I.020] yielded a logP under setting [1] of 4.51.

Regarding `COC1(c2ccc(C)cc2CN(C(=O)c2c(C(F)F)nn(C)c2Cl)C2CC2)CC1` [I.123], under setting [1], the logP stood at 3.74.

`Cn1nc(C(F)F)c(C(=O)N(Cc2ccc(Cl)cc2C2(C)CC2)C2CC2)c1F` [I.018]: the logP under setting [1] is listed as 4.43.

Values taken from patent US10070645B2, “N-cycloalkyl-N-{[2-(1-substitutedcycloalkyl)phenyl]methylene}-(thio)carboxamide derivatives” (BAYER CROPSCIENCE AKTIENGESELLSCHAFT, priority 2013, dated 2018).
